Source: ChEMBL document CHEMBL4673239, “Discovery of Tyrosine Kinase 2 (TYK2) Inhibitor (PF-06826647) for the Treatment of Autoimmune Diseases” (J Med Chem, 2020)
pIC50: −log10 of the molar value.

Columns and labels:
[1] = target: Tyrosine-protein kinase JAK1 (Homo sapiens, UniProt P23458)
[2] = target: T1, Tyrosine-protein kinase JAK3 (Homo sapiens, UniProt P52333); assay: Inhibition of recombinant human GST-tagged JAK3 catalytic domain (781 to 1124 residues) expressed in baculovirus expression system using FITC-KGGEEEEYFELVKK as substrate in presence of ATP at Km by microfluidic assay
T1 sequence (P52333 whole entry): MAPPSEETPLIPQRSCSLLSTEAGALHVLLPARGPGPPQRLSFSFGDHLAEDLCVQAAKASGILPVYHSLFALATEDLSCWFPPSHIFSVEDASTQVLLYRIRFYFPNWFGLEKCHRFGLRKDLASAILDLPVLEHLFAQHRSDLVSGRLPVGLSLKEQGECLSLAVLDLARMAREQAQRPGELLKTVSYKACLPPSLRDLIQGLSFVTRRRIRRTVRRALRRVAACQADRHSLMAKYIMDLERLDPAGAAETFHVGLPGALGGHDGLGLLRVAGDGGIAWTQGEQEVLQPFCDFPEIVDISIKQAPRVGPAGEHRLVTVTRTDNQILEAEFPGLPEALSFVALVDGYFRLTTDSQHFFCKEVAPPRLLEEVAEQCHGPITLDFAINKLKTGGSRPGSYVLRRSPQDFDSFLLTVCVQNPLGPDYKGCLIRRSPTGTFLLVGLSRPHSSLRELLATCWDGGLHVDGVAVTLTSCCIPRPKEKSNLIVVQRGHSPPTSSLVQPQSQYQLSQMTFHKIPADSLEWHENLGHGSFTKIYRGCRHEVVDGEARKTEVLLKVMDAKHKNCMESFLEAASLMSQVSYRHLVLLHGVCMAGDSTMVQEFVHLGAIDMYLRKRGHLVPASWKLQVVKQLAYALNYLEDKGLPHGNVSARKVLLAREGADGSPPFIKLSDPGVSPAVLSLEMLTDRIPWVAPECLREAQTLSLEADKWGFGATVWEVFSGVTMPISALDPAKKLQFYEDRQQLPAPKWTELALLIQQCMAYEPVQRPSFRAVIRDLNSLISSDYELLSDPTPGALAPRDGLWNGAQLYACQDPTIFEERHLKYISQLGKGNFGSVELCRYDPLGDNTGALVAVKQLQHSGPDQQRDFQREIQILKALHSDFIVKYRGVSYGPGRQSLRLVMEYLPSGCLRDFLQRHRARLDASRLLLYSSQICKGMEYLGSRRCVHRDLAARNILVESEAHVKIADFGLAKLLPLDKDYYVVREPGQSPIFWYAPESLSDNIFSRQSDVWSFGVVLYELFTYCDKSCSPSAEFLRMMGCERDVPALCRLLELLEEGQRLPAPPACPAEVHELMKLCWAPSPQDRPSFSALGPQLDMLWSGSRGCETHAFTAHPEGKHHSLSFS

[3] = Apparent permeability in MDCK-II cells; type: ADME, cell-based, Canis lupus familiaris; settings: dog
[4] = physchem; settings: octanol/water phosphate buffer, pH 7.4
Description: Octanol/water phosphate buffer partition coefficient, log D of compound at pH 7.4 by shake-flask method

[5] = Clearance in human liver microsomes assessed per mg protein; type: ADME, Microsome; settings: read-out: CLH
[6] = target: T2, Tyrosine-protein kinase JAK2 (Homo sapiens, UniProt O60674); assay: Inhibition of recombinant human GST-tagged JAK2 catalytic domain (809 to 1153+9 residues) expressed in baculovirus expression system using FITC-KGGEEEEYFELVKK as substrate in presence of ATP at Km by microfluidic assay
T2 sequence (O60674 whole entry, the tested form may be a part): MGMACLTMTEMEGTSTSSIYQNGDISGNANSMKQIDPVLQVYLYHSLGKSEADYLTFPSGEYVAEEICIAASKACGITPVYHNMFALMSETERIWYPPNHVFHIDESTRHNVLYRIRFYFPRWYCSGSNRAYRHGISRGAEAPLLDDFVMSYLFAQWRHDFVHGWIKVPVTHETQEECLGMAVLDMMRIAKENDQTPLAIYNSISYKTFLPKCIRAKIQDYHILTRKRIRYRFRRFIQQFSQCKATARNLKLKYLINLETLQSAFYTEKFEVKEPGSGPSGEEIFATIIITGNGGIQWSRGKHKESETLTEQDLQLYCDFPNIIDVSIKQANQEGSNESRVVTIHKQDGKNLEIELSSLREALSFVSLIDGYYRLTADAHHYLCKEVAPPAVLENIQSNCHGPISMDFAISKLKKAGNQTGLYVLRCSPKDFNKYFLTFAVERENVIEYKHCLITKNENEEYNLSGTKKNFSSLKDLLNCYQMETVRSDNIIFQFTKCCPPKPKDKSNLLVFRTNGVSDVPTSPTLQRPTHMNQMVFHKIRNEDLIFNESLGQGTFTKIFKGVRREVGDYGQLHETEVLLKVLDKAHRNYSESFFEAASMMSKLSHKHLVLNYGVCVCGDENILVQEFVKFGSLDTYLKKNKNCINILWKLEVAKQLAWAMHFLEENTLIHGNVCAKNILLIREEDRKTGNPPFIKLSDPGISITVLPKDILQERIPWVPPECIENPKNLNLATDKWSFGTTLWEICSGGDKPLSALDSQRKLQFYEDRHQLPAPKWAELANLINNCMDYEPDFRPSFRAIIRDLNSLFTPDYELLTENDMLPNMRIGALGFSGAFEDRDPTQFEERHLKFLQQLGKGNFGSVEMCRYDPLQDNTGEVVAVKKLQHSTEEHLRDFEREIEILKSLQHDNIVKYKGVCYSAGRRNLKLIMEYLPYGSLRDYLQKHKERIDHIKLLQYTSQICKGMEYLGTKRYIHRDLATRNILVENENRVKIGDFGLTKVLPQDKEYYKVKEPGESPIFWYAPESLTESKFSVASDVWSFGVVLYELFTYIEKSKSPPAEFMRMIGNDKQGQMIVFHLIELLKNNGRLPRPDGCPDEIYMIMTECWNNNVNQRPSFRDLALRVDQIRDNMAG

[7] = target: Non-receptor tyrosine-protein kinase TYK2 (Homo sapiens, UniProt P29597); assay: biochemical
Sequence of Non-receptor tyrosine-protein kinase TYK2 (P29597 whole entry): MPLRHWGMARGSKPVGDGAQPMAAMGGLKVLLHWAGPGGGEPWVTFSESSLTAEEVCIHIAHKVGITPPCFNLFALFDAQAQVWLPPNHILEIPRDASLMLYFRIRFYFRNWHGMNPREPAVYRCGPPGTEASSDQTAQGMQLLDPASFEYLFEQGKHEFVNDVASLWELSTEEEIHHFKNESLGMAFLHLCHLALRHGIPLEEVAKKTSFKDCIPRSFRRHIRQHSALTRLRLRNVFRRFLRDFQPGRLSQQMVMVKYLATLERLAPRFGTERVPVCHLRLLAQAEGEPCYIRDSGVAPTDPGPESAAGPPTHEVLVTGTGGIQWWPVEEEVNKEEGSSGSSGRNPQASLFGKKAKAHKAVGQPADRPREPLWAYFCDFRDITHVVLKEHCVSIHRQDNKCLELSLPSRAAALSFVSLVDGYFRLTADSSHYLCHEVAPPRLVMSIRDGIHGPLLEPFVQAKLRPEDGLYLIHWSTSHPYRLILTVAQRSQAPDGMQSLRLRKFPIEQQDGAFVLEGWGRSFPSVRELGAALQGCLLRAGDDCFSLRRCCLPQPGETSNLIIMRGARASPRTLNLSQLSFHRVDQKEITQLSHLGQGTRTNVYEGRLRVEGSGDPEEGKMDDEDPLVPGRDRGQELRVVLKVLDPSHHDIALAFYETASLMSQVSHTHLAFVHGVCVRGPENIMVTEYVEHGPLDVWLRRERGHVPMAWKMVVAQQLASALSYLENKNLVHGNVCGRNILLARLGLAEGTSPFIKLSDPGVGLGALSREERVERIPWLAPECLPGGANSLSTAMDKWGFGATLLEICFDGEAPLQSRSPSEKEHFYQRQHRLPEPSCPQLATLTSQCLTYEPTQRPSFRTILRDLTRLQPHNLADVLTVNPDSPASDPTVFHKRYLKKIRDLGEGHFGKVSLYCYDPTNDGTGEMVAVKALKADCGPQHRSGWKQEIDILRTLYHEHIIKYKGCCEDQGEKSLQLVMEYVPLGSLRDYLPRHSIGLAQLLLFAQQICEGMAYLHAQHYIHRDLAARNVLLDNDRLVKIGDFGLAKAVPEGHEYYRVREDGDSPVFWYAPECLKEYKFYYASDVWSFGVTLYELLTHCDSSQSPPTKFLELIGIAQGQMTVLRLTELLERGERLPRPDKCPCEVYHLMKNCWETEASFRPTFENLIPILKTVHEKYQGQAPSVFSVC

[8] = target: T2, Tyrosine-protein kinase JAK2; assay: Inhibition of JAK2 homodimer signaling pathway in human whole blood spiked with CD34 +ve cells assessed as reduction in EPO induced STAT5 phosphorylation preincubated for 45 mins followed by EPO addition and measured measured after 15 mins by immunostaining based FACS assay; type: tissue-based
[9] = Apparent clearance in human hepatocytes assessed per million cells; type: ADME, cell-based, Hepatocyte; settings: read-out: CLH
[10] = Fraction unbound in human plasma; type: ADME, cell-free
[11] = species on record: Homo sapiens; assay: Selectivity ratio of IC50 for recombinant human GST-tagged JAK2 catalytic domain (809 to 1153+9 residues) expressed in baculovirus expression system to IC50 for inhibition of recombinant human His-tagged TYK2 expressed in baculovirus infected Sf21 cells
[12] = system: TYK2/JAK2 (Homo sapiens); settings: Blood, time 60.0 min

Sequence of Tyrosine-protein kinase JAK1 (P23458 whole entry, the tested form may be a part): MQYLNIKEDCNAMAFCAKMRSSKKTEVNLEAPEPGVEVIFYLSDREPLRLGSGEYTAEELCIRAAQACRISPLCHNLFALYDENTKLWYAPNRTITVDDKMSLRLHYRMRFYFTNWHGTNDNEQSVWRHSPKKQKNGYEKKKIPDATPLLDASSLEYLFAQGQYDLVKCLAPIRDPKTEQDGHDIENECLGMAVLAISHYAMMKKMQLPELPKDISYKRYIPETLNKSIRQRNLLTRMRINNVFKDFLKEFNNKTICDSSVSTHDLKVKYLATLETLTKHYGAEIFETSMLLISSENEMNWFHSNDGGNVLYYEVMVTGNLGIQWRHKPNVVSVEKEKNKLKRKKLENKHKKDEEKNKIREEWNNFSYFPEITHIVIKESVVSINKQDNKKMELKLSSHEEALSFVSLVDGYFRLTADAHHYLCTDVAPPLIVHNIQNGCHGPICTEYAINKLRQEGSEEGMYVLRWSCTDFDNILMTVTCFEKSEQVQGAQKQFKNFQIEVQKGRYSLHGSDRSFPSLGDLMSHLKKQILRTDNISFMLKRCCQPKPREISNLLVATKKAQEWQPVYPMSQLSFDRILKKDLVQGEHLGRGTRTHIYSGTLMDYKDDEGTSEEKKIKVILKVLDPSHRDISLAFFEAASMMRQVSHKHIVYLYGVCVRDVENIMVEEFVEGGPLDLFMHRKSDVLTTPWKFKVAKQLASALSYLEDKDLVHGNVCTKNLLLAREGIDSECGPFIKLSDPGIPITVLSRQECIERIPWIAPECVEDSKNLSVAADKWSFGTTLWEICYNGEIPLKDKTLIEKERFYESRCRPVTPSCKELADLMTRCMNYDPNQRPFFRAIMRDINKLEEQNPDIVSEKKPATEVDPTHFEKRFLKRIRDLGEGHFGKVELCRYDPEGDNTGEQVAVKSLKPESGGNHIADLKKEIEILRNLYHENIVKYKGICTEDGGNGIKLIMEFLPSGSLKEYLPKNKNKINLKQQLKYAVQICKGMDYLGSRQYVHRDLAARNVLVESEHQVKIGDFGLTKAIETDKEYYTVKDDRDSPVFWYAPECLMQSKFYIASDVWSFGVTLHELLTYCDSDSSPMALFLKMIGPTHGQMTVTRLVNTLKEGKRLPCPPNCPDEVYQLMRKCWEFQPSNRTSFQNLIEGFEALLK

| Compound | pIC50 [1] | pIC50 [2] | Papp [3] | logD [4] | microsomal CLint [5] | pIC50 [6] | pIC50 [7] | pIC50 [8] | hepatocyte CLint [9] | fraction unbound [10] | Ratio IC50 [11] | fIC50 [12] |
| --- | --- | --- | --- | --- | --- | --- | --- | --- | --- | --- | --- | --- |
| N#CC[C@]1(n2cc(-c3nc(-c4cn[nH]c4)cn4nccc34)cn2)C[C@@H](C#N)C1 | 7.66 | 5.65 | 6 ×10⁻⁶ cm/s | 1.6 | 44 µL/min/mg | 7.66 | 8.10 | – | – | – | – | – |
| Cn1cc(-c2cc(-c3cnn(C4(CC#N)CN(CC(F)(F)F)C4)c3)n3cnnc3c2)cn1 | – | – | – | 1.2 | – | – | < 5.00 | – | – | – | – | – |
| Cn1cc(-c2cc(-c3cnn(C4(CC#N)CN(CC(F)(F)F)C4)c3)n3ncnc3c2)cn1 | – | – | – | 2.3 | – | – | 6.32 | – | – | – | – | – |
| Cn1ccc(-c2cn3nccc3c(-c3cnn([C@]4(CC#N)C[C@@H](C#N)C4)c3)n2)n1 | 5.60 | < 5.00 | 20 ×10⁻⁶ cm/s | 1.6 | < 8 µL/min/mg | 6.33 | 7.17 | – | < 2 µL/min/1e6 cells | 0.2 | 7 | 254 nM |
| N#CC[C@]1(n2cc(-c3nc(-c4cn[nH]c4)cn4nccc34)cn2)C[C@H](C#N)C1 | 6.40 | < 5.00 | 7 ×10⁻⁶ cm/s | 1.7 | 19 µL/min/mg | 6.55 | 7.36 | – | – | – | – | – |
| Cn1cc(-c2cc(-c3cnn(C4(CC#N)CN(CC(F)(F)F)C4)c3)n3ccnc3c2)cn1 | – | – | – | 2.1 | – | – | 6.54 | – | – | – | – | – |
| CC(=O)N1CC(CC#N)(n2cc(-c3nc(-c4cnn(C)c4)cn4nccc34)cn2)C1 | 5.21 | < 5.00 | 4 ×10⁻⁶ cm/s | 1.2 | < 8 µL/min/mg | 5.76 | 6.17 | – | – | – | – | – |
| Cn1cc(-c2cn3nccc3c(-c3cnn(C4(CC#N)CN(CC(F)(F)F)C4)c3)n2)cn1 | 6.45 | < 5.01 | 18 ×10⁻⁶ cm/s | 2.5 | 18 µL/min/mg | 7.19 | 8.00 | – | – | – | – | – |
| N#CC[C@]1(n2cc(-c3nc(-c4cc[nH]n4)cn4nccc34)cn2)C[C@H](C#N)C1 | 6.55 | < 5.00 | 17 ×10⁻⁶ cm/s | 1.7 | < 8 µL/min/mg | 6.76 | 7.59 | – | 7 µL/min/1e6 cells | 0.32 | 7 | 334 nM |
| N#CC[C@]1(n2cc(-c3nc(-c4cc[nH]n4)cn4nccc34)cn2)C[C@@H](C#N)C1 | 7.37 | 5.35 | 7 ×10⁻⁶ cm/s | 1.7 | 20 µL/min/mg | 7.51 | 8.05 | – | – | – | – | – |
| Cn1ccc(-c2cn3nccc3c(-c3cnn([C@]4(CC#N)C[C@H](C#N)C4)c3)n2)n1 | 6.58 | < 5.02 | 14 ×10⁻⁶ cm/s | 1.6 | 23 µL/min/mg | 7.35 | 8.00 | – | – | – | – | – |

Second part, led by results:

| pIC50 [1] | pIC50 [2] | Papp [3] | logD [4] | microsomal CLint [5] | pIC50 [6] | pIC50 [7] | pIC50 [8] | Compound | hepatocyte CLint [9] | fraction unbound [10] | Ratio IC50 [11] | fIC50 [12] |
| --- | --- | --- | --- | --- | --- | --- | --- | --- | --- | --- | --- | --- |
| – | – | 22 ×10⁻⁶ cm/s | 2.3 | < 8 µL/min/mg | – | – | 5.96 | CO[C@H]1C[C@](CC#N)(n2cc(-c3nc(-c4cnn(C)c4)cn4nccc34)cn2)C1 | 6 µL/min/1e6 cells | 0.3 | – | – |
| 5.25 | < 5.00 | 7 ×10⁻⁶ cm/s | 1.2 | < 8 µL/min/mg | 5.98 | 6.72 | – | Cn1cc(-c2cn3nccc3c(-c3cnn(C4(CC#N)CN(CCO)C4)c3)n2)cn1 | – | – | – | – |
| – | < 5.00 | 20 ×10⁻⁶ cm/s | 2.2 | 27 µL/min/mg | – | – | – | CO[C@H]1C[C@@](CC#N)(n2cc(-c3nc(-c4cnn(C)c4)cn4nccc34)cn2)C1 | – | – | – | – |
| – | – | 21 ×10⁻⁶ cm/s | 1.8 | 10 µL/min/mg | – | – | – | Cn1cc(-c2cn3nccc3c(-c3cnn([C@]4(CC#N)C[C@H](CC#N)C4)c3)n2)cn1 | – | – | – | – |
| – | – | 15 ×10⁻⁶ cm/s | 1.8 | 17 µL/min/mg | – | – | – | Cn1cc(-c2cn3nccc3c(-c3cnn([C@]4(CC#N)C[C@H](C#N)C4)c3)n2)cn1 | 12 µL/min/1e6 cells | 0.34 | – | – |
| 6.03 | < 5.00 | 27 ×10⁻⁶ cm/s | – | 30 µL/min/mg | 6.73 | 7.40 | – | Cn1cc(-c2cn3nccc3c(-c3cnn(C4(CC#N)CN(CC5CC5)C4)c3)n2)cn1 | – | – | – | – |
| – | – | 11 ×10⁻⁶ cm/s | 1.5 | < 8 µL/min/mg | – | – | – | Cn1cc(-c2cn3nccc3c(-c3cnn(C4(CC#N)CN(CC#N)C4)c3)n2)cn1 | – | – | – | – |
| – | – | 20 ×10⁻⁶ cm/s | 1.9 | 11 µL/min/mg | – | – | – | Cn1cc(-c2cn3nccc3c(-c3cnn([C@]4(CC#N)C[C@@H](CC#N)C4)c3)n2)cn1 | – | – | – | – |
| 5.57 | < 5.00 | 33 ×10⁻⁶ cm/s | 2.1 | 21 µL/min/mg | 6.46 | 7.34 | – | CCN1CC(CC#N)(n2cc(-c3nc(-c4cnn(C)c4)cn4nccc34)cn2)C1 | – | – | – | – |
